Measurements: US10550142B2, “Quercetin-based compound” (AMOREPACIFIC CORPORATION, priority 2016, dated 2020)

Biological target: T1, β-amyloid (Aβ1-42) (Homo sapiens, UniProt P05067)
T1 construct: β-amyloid (Aβ1-42, AnaSpec Inc, USA) was obtained; purchased AnaSpec Inc, USA
Test: Beta-amyloid aggregation inhibition, fluorescence analysis (Thioflavin T assay)
Format: biochemical
Details: compound 10 μM; for Increased RFU (% of Pos.Cont.): aggregated β-amyloid compared to the positive control (no compound) = 100; for decreased aggregation compared with the positive control: positive control taken as 100%
Description: The beta-amyloid aggregation inhibitory effect of quercetin 3-O-[3-O″-(E)-p-coumaroyl][β-D-glucopyranosyl-(1→3)-O-α-L-rhamnopyranosyl-(1→6)-O-β-D-glucopyranoside] and quercetin 3-O-[3-O″-(E)-p-coumaroyl][α-L-rhamnopyranosyl-(1→6)-O-β-D-glucopyranoside] was determined by fluorescence analysis (Thioflavin T assay). Specifically, β-amyloid (Aβ1-42, AnaSpec Inc, USA) was obtained and used at a concentration of 0.1 mg/ml. It was stored at −80° C. prior to use. Each of morin (20 μM), phenol red (20 μM), quercetin 3-O-[3-O″-(E)-p-coumaroyl][β-D-glucopyranosyl-(1→3)-O-α-L-rhamnopyranosyl-(1→6)-O-β-D-glucopyranoside] (1 mg/ml), and quercetin 3-O-[3-O″-(E)-p-coumaroyl][α-L-rhamnopyranosyl-(1→6)-O-β-D-glucopyranoside] (1 mg/ml) was diluted to these concentrations in DMSO. In order to determine the degree of inhibition of Aβ1-42 aggregation, each compound at the above concentration was diluted to 10 μM in 50 μL of 0.01 M sodium phosphate buffer solution. Then, 40 μL of 0.1 mg/ml Aβ1-42 was added thereto, followed by addition of 10 μL of 2 mM Thioflavin T. The fluorescence was then measured with a fluorescence spectrometer (RF-5300PC, SHIMADZU CORPORATION, Japan) at 37° C. and intervals of 5 minutes for 150 minutes. In the table above, “RFU” denotes relative fluorescence unit, and “increased RFU” indicates the amount of aggregated β-amyloid. “Increased RFU (% of Pos.Cont.)” indicates the percentage of aggregated β-amyloid compared to the positive control. “Novel substance 31” indicates quercetin 3-O-[3-O″-(E)-p-coumaroyl][β-D-glucopyranosyl-(1→3)-O-α-L-rhamnopyranosyl-(1→6)-O-β-D-glucopyranoside], and “novel substance 32” indicates quercetin 3-O-[3-O″-(E)-p-coumaroyl][α-L-rhamnopyranosyl-(1→6)-O-β-D-glucopyranoside].

T1 sequence (P05067 672-713 limits assumed): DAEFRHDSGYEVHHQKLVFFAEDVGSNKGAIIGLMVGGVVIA

Structure (SMILES)	Increased RFU (amount of aggregated β-amyloid) (Aβ1-42 0.1 mg/ml, 37° C., 150 minutes)	Increased RFU (% of Pos.Cont.)	decreased aggregation compared with the positive control
O=c1c(O)c(-c2ccc(O)cc2O)oc2cc(O)cc(O)c12 [Morin, morin, reference compound]	11471 RFU	78.6%	21.4%
O=S1(=O)OC(c2ccc(O)cc2)(c2ccc(O)cc2)c2ccccc21 [Phenol Red, phenol red, reference compound]		93.6%	6.4%
